# From EP0968998A1, “Cosmetic compositions, ceramide analogues with anti-elastase activity and process for their preparation” (ELF ATOCHEM S.A., priority 1998, dated 2000)
# Experiments:
# [1] = molecular target: T1, élastase de leucocytes humains (Homo sapiens, UniProt P08246); assay: Anti-elastase activity: release of p-nitroaniline from N-succinyl-(Ala)3-p-nitroanilide, spectrophotometry at 410 nm; format: biochemical; conditions: pH 8, 37°C, pH8, 5 min preincubation, substrate 250 µM, read-out: % I (%)
# T1 construct: purchased Elastin Products Co. SE 563; host or cells: human leukocytes, as the enzyme's name says
# T1 sequence (P08246 30-267): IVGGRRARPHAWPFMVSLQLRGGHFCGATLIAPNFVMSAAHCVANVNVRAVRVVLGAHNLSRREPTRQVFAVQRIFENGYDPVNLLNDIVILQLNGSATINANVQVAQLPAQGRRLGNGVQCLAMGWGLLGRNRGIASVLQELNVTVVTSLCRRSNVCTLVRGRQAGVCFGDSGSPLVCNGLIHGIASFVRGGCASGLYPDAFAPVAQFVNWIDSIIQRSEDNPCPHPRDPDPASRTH
# From the text: Les exemples qui suivent permettent d'illustrer l'invention. Dans ces exemples, on utilise les méthodes d'analyse suivantes : - Spectrographie infrarouge (IR) Les spectres sont réalisés au moyen d'un appareil PERKIN ELMER 1760 IRTF, en dispersion dans KBr à 1 %. Les valeurs sont exprimées en nombre d'onde par centimètre. - Résonance magnétique nucléaire (RMN) Les spectres sont réalisés au moyen d'un appareil BRUCKER DRX 500, à 500 MHz (^1H) et 125 MHz (^13C) dans le DMSO-d6. La calibration de l'appareil est effectuée au moyen de DMSO. Les déplacements chimiques sont exprimés en ppm. L'aspect des signaux est noté : singulet (s), doublet (d), triplet (t), quadruplet (q), multiplet (m), quintuplet (*5) et couplage AB (AB). - Mesure de l'activité anti-élastase L'activité anti-élastase est mesurée selon la méthode qui consiste à faire réagir l'élastase de leucocytes humains (référence SE 563; Elastin Products Co.; Owensville, MO, USA) avec le N-succinyl-(Ala)3-p-nitroanilide (réf. S4760; Sigma) et mesurer la libération de p-nitroaniline. On utilise le N-succinyl-(Ala)3-p-nitroanilide en solution dans le tétrahydrofurane et une solution d'élastase à 100 mg/ml dans un mélange de glycérol et de tampon acétate de sodium (50/50; v/v), pH5. L'activité de l'enzyme est mesurée à 37°C dans 100 mM de tampon Tris-HCI, pH8 contenant 0,01 % de Triton X-100 (volume/volume) et 0,02 % d'azide de sodium (poids/volume). Le céramide à tester, solubilisé dans le tétrahydrofurane (concentration en THF = 0,5 % en volume) est préincubé en présence de l'enzyme (0,05 mg/ml) dans le tampon pendant 5 minutes à 37°C. On ajoute le N-succinyl-(Ala)3-p-nitroanilide (concentration finale : 250 µM) et on mesure la libération de la p-nitroaniline dans une cuve en quartz par spectrophotométrie à 410 nm. La capacité inhibitrice du céramide est exprimée en pourcentage d'inhibition (% I) selon la relation : %I = (1 -(Vi)/(Vo))×100 [formula] dans laquelle Vi et Vo sont les vitesses d'apparition de la p-nitroaniline en présence et en absence d'inhibiteur respectivement. - Mesure de l'amélioration de la barrière cutanée a) mesure de la Perte Insensible en Eau (PIE) La mesure de la PIE permet de quantifier la très faible quantité d'eau qui diffuse passivement à travers le stratum corneum. Ce paramètre représente un très bon index de la fonction barrière du stratum corneum. Cette méthode est surtout utilisée pour contrôler l'efficacité de formules cosmétiques qui, contenant certains types de lipides sont capables de diminuer la PIE et, en conséquence, d'empêcher la déshydratation du stratum corneum. La sonde est laissée en contact de la peau pendant 2 minutes environ de façon à atteindre une position d'équilibre. PIE = D'(dP)/(dx)(gradient de pression de vapeur) [formula] Les valeurs sont exprimées en g/m^2/heure et permettent de calculer un delta de PIE = PIE (peau traitée) - PIE (peau témoin). L'appareil utilisé est un Evaporimètre EPI de Servomed. Les mesures sont effectuées sur deux groupes de 15 volontaires sains ayant une peau sèche, avant l'application du produit (t=0) et après l'application (t=0,5 heure, 1 heure, 3 heures et 6 heures) sur la face interne des deux avant-bras. L'analogue de céramide selon l'invention ou le céramide témoin est incorporé dans une crème ayant la composition suivante (en % en poids) : […]
# stratum corneum [2] = assay: Skin barrier improvement: transepidermal (insensible) water loss (PIE), Servomed evaporimeter, cream applied to inner forearm; format: in vivo, volontaires sains ayant une peau sèche; conditions: for Perte Insensible en Eau (PIE) M±s: cream with 0,5 % (ex. 7, témoins), 1 % (ex. 4, 8), 5 % (ex. 6)
# From the text: (§1) Les exemples qui suivent permettent d'illustrer l'invention. […] Les valeurs sont exprimées en nombre d'onde par centimètre. - Résonance magnétique nucléaire (RMN) Les spectres sont réalisés au moyen d'un appareil BRUCKER DRX 500, à 500 MHz (^1H) et 125 MHz (^13C) dans le DMSO-d6. La calibration de l'appareil est effectuée au moyen de DMSO. Les déplacements chimiques sont exprimés en ppm. […] On utilise le N-succinyl-(Ala)3-p-nitroanilide en solution dans le tétrahydrofurane et une solution d'élastase à 100 mg/ml dans un mélange de glycérol et de tampon acétate de sodium (50/50; v/v), pH5. L'activité de l'enzyme est mesurée à 37°C dans 100 mM de tampon Tris-HCI, pH8 contenant 0,01 % de Triton X-100 (volume/volume) et 0,02 % d'azide de sodium (poids/volume). Le céramide à tester, solubilisé dans le tétrahydrofurane (concentration en THF = 0,5 % en volume) est préincubé en présence de l'enzyme (0,05 mg/ml) dans le tampon pendant 5 minutes à 37°C. On ajoute le N-succinyl-(Ala)3-p-nitroanilide (concentration finale : 250 µM) et on mesure la libération de la p-nitroaniline dans une cuve en quartz par spectrophotométrie à 410 nm. La capacité inhibitrice du céramide est exprimée en pourcentage d'inhibition (% I) selon la relation : %I = (1 -(Vi)/(Vo))×100 [formula] dans laquelle Vi et Vo sont les vitesses d'apparition de la p-nitroaniline en présence et en absence d'inhibiteur respectivement. - Mesure de l'amélioration de la barrière cutanée a) mesure de la Perte Insensible en Eau (PIE) La mesure de la PIE permet de quantifier la très faible quantité d'eau qui diffuse passivement à travers le stratum corneum. Ce paramètre représente un très bon index de la fonction barrière du stratum corneum. Cette méthode est surtout utilisée pour contrôler l'efficacité de formules cosmétiques qui, contenant certains types de lipides sont capables de diminuer la PIE et, en conséquence, d'empêcher la déshydratation du stratum corneum. La sonde est laissée en contact de la peau pendant 2 minutes environ de façon à atteindre une position d'équilibre. PIE = D'(dP)/(dx)(gradient de pression de vapeur) [formula] Les valeurs sont exprimées en g/m^2/heure et permettent de calculer un delta de PIE = PIE (peau traitée) - PIE (peau témoin). L'appareil utilisé est un Evaporimètre EPI de Servomed. Les mesures sont effectuées sur deux groupes de 15 volontaires sains ayant une peau sèche, avant l'application du produit (t=0) et après l'application (t=0,5 heure, 1 heure, 3 heures et 6 heures) sur la face interne des deux avant-bras. L'analogue de céramide selon l'invention ou le céramide témoin est incorporé dans une crème ayant la composition suivante (en % en poids) :
# (§2) La teneur en analogue de céramide dans la crème est égale à 0,5 % (exemple 7), 1 % (exemples 4 et 8) et 5 % (exemple 6), et celle des céramides témoins (a) et (b) est égale à 0,5 %. La diminution des valeurs de PIE signifie une amélioration de la qualité de la barrière cutanée qui traduit un meilleur pouvoir retentionnel de l'eau au niveau de la couche cornée et donc une meilleure hydratation. b) hydratation cutanée L'eau peut être considérée comme un dipôle électrique capable de conduire l'électricité. Le transport d'électricité dans un champ donné est proportionnel à la quantité d'eau présente dans le stratum corneum. Plus une peau est riche en eau et plus le courant électrique passe rapidement entre 2 électrodes. Il existe donc un lien entre l'hydratation du stratum corneum et les modifications des propriétés électriques. Les mesures de capacitance, liée à la constante diélectrique de la peau, sont réalisées par le Cornéomètre Courage+Khazaka CM 200, dont la sonde présente une surface de contact avec la peau de 49 mm^2; cette sonde est appliquée avec une pression constante sur la surface cutanée à mesurer, et l'indice d'hydratation directement proportionnel au taux hydrique de surface est instantané.
# stratum corneum [3] = assay: Skin hydration: capacitance measurement (Corneometer Courage+Khazaka CM 200), hydration index, cream applied to forearm; format: in vivo, volontaires sains ayant une peau sèche; conditions: for Indice d'Hydratation (IH) M±s: cream with 0,5 % (ex. 7, témoins), 1 % (ex. 4, 8), 5 % (ex. 6)
# From the text: as §1, §2
# [4] = t=0 heure (before application, baseline)
Compound,inhibition at 250 µM ([1]; Concentration 250 µM) [%],inhibition at 500 µM ([1]; Concentration 500 µM) [%],"Perte Insensible en Eau (PIE) M±s (stratum corneum [2]; t=0,5 heure after application)",Perte Insensible en Eau (PIE) M±s (stratum corneum [2]; [4]),Perte Insensible en Eau (PIE) M±s (stratum corneum [2]; t=1 heure after application),Perte Insensible en Eau (PIE) M±s (stratum corneum [2]; t=3 heures after application),Perte Insensible en Eau (PIE) M±s (stratum corneum [2]; t=6 heures after application),Perte Insensible en Eau (PIE) % évol. (stratum corneum [2]; t=6 heures versus t=0) [%],"Indice d'Hydratation (IH) M±s (stratum corneum [3]; t=0,5 heure after application)",Indice d'Hydratation (IH) M±s (stratum corneum [3]; [4]),Indice d'Hydratation (IH) M±s (stratum corneum [3]; t=1 heure after application),Indice d'Hydratation (IH) M±s (stratum corneum [3]; t=3 heures after application),Indice d'Hydratation (IH) M±s (stratum corneum [3]; t=6 heures after application),Indice d'Hydratation (IH) % évol. (stratum corneum [3]; t=3 heures versus t=0) [%]
"CCCCCCCCCCCCCCCC(=O)NC(CO)COC(=O)CCCCCCCCCCCCCCC (stereo not drawn) [Exemple 1, 1-palmitoyl-2-palmitoylamino-1,3-propanediol]",55,66,–,–,–,–,–,–,–,–,–,–,–,–
"CCCCCCCC/C=C\CCCCCCCC(=O)NC(CC)(CO)COC(=O)CCCCCCC/C=C\CCCCCCCC (stereo not drawn) [Exemple 6, 1-oléoyl-2-éthyl-2-oléoylamino-1,3-propanediol]",–,–,"3,67±1,34 g/m^2/heure","3,96±1,60 g/m^2/heure","3,48±1,19 g/m^2/heure","3,39±1,20 g/m^2/heure","3,97±1,20 g/m^2/heure",0,"78,53±6,23","61,91±6,90","75,29±7,78","67,05±5,61","64,56±6,14",–
"CCCCCCCCCCCCCCCCCC(=O)NC(C)(CO)COC(=O)CCCCCCCCCCCCCCCCC (stereo not drawn) [Exemple 7, 1-stéaroyl-2-méthyl-2-stéaroylamino-1,3-propanediol]",–,–,"4,07±1,72 g/m^2/heure","4,50±2,0 g/m^2/heure","3,78±1,67 g/m^2/heure","3,70±1,50 g/m^2/heure","4,46±1,64 g/m^2/heure",–,"66,13±5,48","60,13±6,27","65,56±6,24","63,82±7,05","61,55±6,32",–
"CCCCCCCCCCCCCCCCCC(=O)NC(CO)(CO)COC(=O)CCCCCCCCCCCCCCCCC [Exemple 8, 1-stéaroyl-2-hydroxyméthyl-2-stéaroylamino-1,3-propanediol]",–,–,"4,28±1,38 g/m^2/heure","4,52±1,02 g/m^2/heure","3,12±1,11 g/m^2/heure","4,62±1,14 g/m^2/heure","4,55±1,39 g/m^2/heure",–,"67,16±7,98","64,13±8,01","67,04±7,74","64,13±8,37","64,87±7,83",0
"CCCCCCCCCCCCCCCCCC(=O)N[C@@H](CO)[C@H](O)[C@H](O)CCCCCCCCCCCCCC [Témoin (b), N-stéaroyl phytosphingosine, reference compound]",–,–,"4,09±1,86 g/m^2/heure","4,22±2,17 g/m^2/heure","3,80±1,75 g/m^2/heure","3,53±1,57 g/m^2/heure","4,36±1,82 g/m^2/heure",–,"67,55±7,89","61,00±7,21","67,45±7,33","63,20±5,36","61,36±3,79",–
"N-stéaroyl-D,L-sphingosine [Témoin (a), reference compound]",–,–,"3,91±1,40 g/m^2/heure","4,40±0,90 g/m^2/heure","3,37±1,00 g/m^2/heure","4,20±1,09 g/m^2/heure","4,11±1,41 g/m^2/heure",–,"67,11±7,74","63,95±8,45","67,93±9,08","62,67±6,59","63,47±6,46",–
